# From patent publication US20250276980A1, “SALTS OF A HETEROCYCLIC COMPOUND AND CRYSTALLINE FORMS, PROCESSES FOR PREPARING, THERAPEUTIC USES, AND PHARMACEUTICAL COMPOSITIONS THEREOF” (Sunovion Pharmaceuticals Inc., priority 2020, published 2025)
# Entries after “also recorded” stand apart in the source; their conditions may differ. Like-named read-outs stand apart in the source and are kept apart here.
# Legend:
# Format in all cases: physicochemical
# [1] = Dynamic vapor sorption (DVS) moisture sorption isotherm, Hiden IGA-sorp; details: for weight gain when humidity increased from 0% RH to 95% RH: 25° C., 0% RH up to 95% RH
# Procedure: (§1) DVS moisture sorption isotherms were generated using a Hiden Analytical IGA-sorp moisture sorption analyzer. Samples were run as received without pre-analysis drying. Each sample was equilibrated between about 30 and 120 minutes at each relative humidity (RH) step. Temperature was fixed at about 25° C. and the relative humidity steps (0 to 95% RH) were in 5-10% increments. Sample sizes ranged from 3 to 30 mg. After DVS measurement, XRPD was measured in order to check the solid form. Dynamic Vapor sorption (DVS) moisture sorption isotherms were generated using IGA-sorp moisture sorption analyzer (Hiden Analytical). Sample measurements were run without drying before analyses. XRPD was measured in order to check any changes of the solid form after the moisture sorption/desorption. The measurement condition is shown below: • Time at each RH steps: From 30 to 120 minutes • Relative humidity steps: 5 or 10% steps • Temperature: 25° C.
# [2] = Thermogravimetric analysis (TGA); details: for TG weight loss: from 70° C., hydrochloride
# Procedure: TGA analyses were performed using a TA Instruments TGA Q500 thermogravimetric analyzer. Each sample was analyzed on a platinum pan, heated under a nitrogen purge at a rate of 10° C./min, from room temperature to 250° C. or 300° C.
# Thermo-Gravimetric Analyzer (TGA) analyses were performed using TGA Q500 thermogravimetric analyzer (TA Instruments). Each sample was analyzed on a platinum pan. The measurement condition is shown below: • Atmosphere: Nitrogen • Elevated temperature rate: 10° C./min • Temperature range: From room temperature to 250 or 300° C.
# [3] = Temperature controlled XRPD (crystal form stability on heating); details: up to melting
# Procedure: Temperature controlled XRPD was measured by the X'pert-MPD with an Anton Paar TCU 100 Temperature Control Unit. Sample was measured from 30° C. to 250° C. or 270° C. with 10° C. increments. Measurement conditions were as follows: range: 4-30°, step: 0.017°, time per step: 100 s.
# FT-Raman, XRPD, DSC, TGA, and DVS instruments and techniques were similar to those in Example 3. Temperature controlled XRPD was measured by X'pert-Pro MIPD (Spectris) with TCU 100 Temperature Control Unit (Anton Paar). The temperature of the sampling stage was increased step by step as programmed and XRPD patterns of sample were measured at each step. The measurement condition is shown below: • Range angle: From 4 to 30° • Step size: 0.017° • Time per step: 100 s
# [4] = Storage at 75% RH (saturated NaCl), solid form checked by Raman/XRPD; details: overnight / 1 day
# Procedure: Fumaric acid salt Form FB has about 3.8% weight loss from low temperature with TGA measurement. From DVS result, there is about 5% weight gain at over 75% RH, so polymorphic form seems to be changed. […] Therefore, Form FA seems to be di-hydrate. Form FB seems to be mono-hydrate. The thermal behavior of Form FA is a little different from that of Form FB. Form FA generated the experiment described above using about 28 mg of fumaric acid and about 2 mL of THE seems to be easy to be dehydrated. It can be affected by vacuum dry. When Form FA and Form FB are placed under dry condition or heated, anhydrous form can be obtained. But they are quickly transformed to be hydrous form by obtaining water in the air.
# It was confirmed that Form HC was reproducible even in the scale up study. […] The NMR spectrum shown indicated no presence of organic solvents.
# [5] = XRPD before and after DVS measurement (moisture sorption/desorption)
# Procedure: as §1
# [6] = Polymorph study of Compound 1 Hydrochloride (solvent, slurry screening, scale up; FT-Raman/XRPD); details: on filtration/drying, humidity or room temperature
# Procedure: FT-Raman analyses were performed by using MultiRAM (Bruker Optics). Each suspension or dry powder sample was measured from out of glass vial. The measurement condition is shown below: • Excitation wavelength: 1064 nm • Laser power: 500 mW • Wavenumber: 4 cm-1 • Sample scan: 128 times
# X-ray Powder Diffraction (XRPD) spectra were obtained by X′ pert Pro MPD (Spectris). X-rays was generated with Cu Kα radiation. The powder samples were put on the reflection free sample plate. The XRPD patterns were analyzed by HighScorePlus. The measurement condition is shown below: • Range angle: From 4 to 30°, to 40° and to 65° (20) • Step size: 0.017° • Time per step: 100 s
# Compound 1 Hydrochloride, Form HA (about 5 mg) was put into each small glass vial and various types of solvents were added until the sample was dissolved at about 90° C. or boiling point. Maximum volume of solvent was about 500 μL. After the solution and suspension was heated for a few hours, the heater was switched off and the sample was cooled. The vials were preserved at about 5° C. Crystals obtained in the vials were measured directly by FT-Raman. After solvent was evaporated by opening the cap of vial, crystals obtained were also measured directly by FT-Raman. Solids were then collected and evaluated by XRPD and thermal analysis as needed.
# Compound 1 Hydrochloride, Form HA (about 10 mg) was put into each small glass vial and various types of organic solvents mixed with water were added. After each sample was suspended at room temperature for about 3 days, suspended solids in the vials were measured directly by FT-Raman. Furthermore, each sample was suspended at about 50° C. for about 3 days and these were measured directly by FT-Raman. Solids were then collected and evaluated by XRPD, thermal analysis and DVS as needed.
# Compound 1 Hydrochloride, Form HA (about 100 mg) was put into a glass vial and about 1 mL of EtOH mixed with water (10:1) was added. […] It was analyzed by XRPD, thermal analysis, ^1H-NMR, elemental analysis and ion-chromatography.
compound,measurement,setting,value
"CNC[C@@H]1OCCn2nc3ccccc3c21.O=S(=O)(O)c1ccccc1 [Compound 1 Besylate, (S)-1-(3,4-dihydro-1H-[1,4]oxazino[4,3-b]indazol-1-yl)-N-methylmethanamine benzenesulfonate]",weight gain at 95% RH,[1]; about 25° C.,about 2%
same,hygroscopicity (in words),"[1]; listed as besylate, benzenesulfonate",less hygroscopicity; also recorded: low hygroscopicity
same,TGA weight loss (in words),[2],no weight loss until melting
"CNC[C@@H]1OCCn2nc3ccccc3c21.O=C(O)/C=C/C(=O)O [Compound 1 Fumarate, (S)-1-(3,4-dihydro-1H-[1,4]oxazino[4,3-b]indazol-1-yl)-N-methylmethanamine fumarate]",hygroscopicity (in words),[1],no hygroscopicity
"CNC[C@@H]1OCCn2nc3ccccc3c21.O=P(O)(O)O [Compound 1 Phosphate, (S)-1-(3,4-dihydro-1H-[1,4]oxazino[4,3-b]indazol-1-yl)-N-methylmethanamine phosphate]",TGA weight loss (in words),"[2]; listed as phosphate salt, phosphate",large amount of weight loss at low temperature
same,TGA weight loss (in words),[2]; phosphate,large amount of weight loss from low temperature
"CNC[C@@H]1OCCn2nc3ccccc3c21.O=S(=O)(O)c1ccccc1 [Form BA, (S)-1-(3,4-dihydro-1H-[1,4]oxazino[4,3-b]indazol-1-yl)-N-methylmethanamine benzenesulfonate]",weight gain at 90% RH,[1]; another batch of Form BA,about 1%
same,weight gain at 90% RH,[1]; one batch of Form BA,about 2%
same,weight gain at 95% RH,[1]; another batch of Form BA,about 2%
same,weight gain at 95% RH,[1]; one batch of Form BA,about 8%
same,hygroscopicity (in words),[1]; benzenesulfonate,less hygroscopicity; also recorded: good hygroscopicity behavior
same,transformation to another polymorph on heating,[3],not transformed to any other polymorph
"CNC[C@@H]1OCCn2nc3ccccc3c21.O=C(O)/C=C/C(=O)O [Form FA, (S)-1-(3,4-dihydro-1H-[1,4]oxazino[4,3-b]indazol-1-yl)-N-methylmethanamine fumarate]",transformation to another polymorph on heating,[3],not transformed to any other polymorph
"CNC[C@@H]1OCCn2nc3ccccc3c21.O=C(O)/C=C/C(=O)O [Form FB, (S)-1-(3,4-dihydro-1H-[1,4]oxazino[4,3-b]indazol-1-yl)-N-methylmethanamine fumarate]",weight gain at over 75% RH,[1]; over 75% RH,about 5%
same,TGA weight loss,[2]; from low temperature,about 3.8%
same,change of crystal form on storage at high humidity,[4],Form FA was observed
"CNC[C@@H]1OCCn2nc3ccccc3c21.Cl [Form HA, (S)-1-(3,4-dihydro-1H-[1,4]oxazino[4,3-b]indazol-1-yl)-N-methylmethanamine hydrochloride]",weight gain at 95% RH,[1]; about 25° C.,over 100%
same,hygroscopicity (in words),[1]; hydrochloride,Highly hygroscopic
same,TG weight loss,[2],over 17.1%
same,change of crystal form after DVS measurement,[5]; hydrochloride,transformed to Form HC mixed with an unidentified polymorph
"CNC[C@@H]1OCCn2nc3ccccc3c21.Cl [Form HB, (S)-1-(3,4-dihydro-1H-[1,4]oxazino[4,3-b]indazol-1-yl)-N-methylmethanamine hydrochloride]",stability of the crystal form,[6],transformed to Form HC or Form HA when it was filtrated and dried; also recorded: Not stable
"CNC[C@@H]1OCCn2nc3ccccc3c21.Cl [Form HC, (S)-1-(3,4-dihydro-1H-[1,4]oxazino[4,3-b]indazol-1-yl)-N-methylmethanamine hydrochloride]",weight gain when humidity increased from 0% RH to 95% RH,[1],9.3%
same,weight gain between 60% RH and 70% RH,[1]; between 60% RH and 70% RH,6.5%
same,hygroscopicity (in words),[1]; hydrochloride,hygroscopic
same,TG weight loss,[2],6.6%
same,change of crystal form after DVS measurement,[5]; hydrochloride,basically stable
same,change of crystal form on storage at high humidity,[4],transformed to Form HD
same,stability of the crystal form,[6],Transformed to Form D at the humidity level of more than 70% RH
"CNC[C@@H]1OCCn2nc3ccccc3c21.Cl [Form HD, (S)-1-(3,4-dihydro-1H-[1,4]oxazino[4,3-b]indazol-1-yl)-N-methylmethanamine hydrochloride]",stability of the crystal form,[6],Transformed to Form C at room temperature
"CNC[C@@H]1OCCn2nc3ccccc3c21.Cc1ccc(S(=O)(=O)O)cc1 [Form TA, (S)-1-(3,4-dihydro-1H-[1,4]oxazino[4,3-b]indazol-1-yl)-N-methylmethanamine tosylate]",weight gain when humidity increased from 0% RH to 95% RH,[1],~1%
same,hygroscopicity (in words),[1]; tosylate,less hygroscopicity; also recorded: good hygroscopicity behavior; also recorded: non-hygroscopicity
same,TGA weight loss (in words),[2],no weight loss until melting
same,transformation to another polymorph on heating,[3]; tosylate,not transformed to any other polymorph; also recorded: not transformed to another form until the melting point
same,change of crystal form after DVS measurement,[5],no changes of the crystal form
